Assay results: ChEMBL document CHEMBL5543061, “Recent advances of antitumor leading compound Erianin: Mechanisms of action and structural modification” (Eur J Med Chem, 2023)

Tests used:
HCT-116 [1] = assay: Antiproliferative activity against human HCT-116 cells assessed as inhibition of cell growth incubated for 72 hrs by CCK-8 assay relative to control; type: functional; set-up: scale not given: the % may be the effect or the level left
HepG2 = assay: Antiproliferative activity against human HepG2 cells assessed as inhibition of cell growth incubated for 72 hrs by CCK-8 assay relative to control; type: functional; set-up: scale not given: the % may be the effect or the level left
HeLa [2] = assay: Antiproliferative activity against human HeLa cells assessed as inhibition of cell growth incubated for 72 hrs by CCK-8 assay relative to control; type: functional; set-up: scale not given: the % may be the effect or the level left
HeLa [3] = assay: Cytotoxicity against human HeLa cells assessed as reduction in cell viability by MTT assay; type: functional, cell-based
A549 = assay: Cytotoxicity against human A549 cells assessed as reduction in cell viability incubated for 48 hrs by Alamar Blue assay; type: functional, cell-based; conditions: A549, 48 h
HCT-116 [4] = assay: Anticancer activity against human HCT-116 cells; type: functional, cell-based

COc1ccc(/C=C\c2cc(OC)c(OC)c(OC)c2)cc1OP(=O)(O)O [FOSBRETABULIN]
Activity (HCT-116 [1]): 86.1%
Activity (HepG2): 88.6%
Activity (HeLa [2]): 84.7%

CCOc1ccc(CCc2cc(OC)c(OC)c(OC)c2)cc1OP(=O)(O)O
IC50 (HeLa [3]): 0.57 µM

Oc1ccc(CCc2cc(O)c(O)c(O)c2)cc1O
IC50 (A549): 42 µM
IC50 (HCT-116 [4]): 42 µM
